According to US11364220B2, “Compounds and methods for inhibiting CPY26 enzymes” (Queen's University at Kingston, priority 2016, dated 2022):
pIC50: −log10 of the molar value. Read-outs that look alike come from different tables or passages of the source.

How the values were obtained:
CYP26A1 = CYP26A1 (Homo sapiens (Human), UniProt O43174); test: Cell-based inhibitor assay, [H]-RA metabolism in CYP26A1 stably transfected HeLa cells; settings: for pIC50: CYP26A1 transfected HeLa cells, 3 hours at 37° C., inhibition of all trans-RA metabolism, read-out: IC50 26A1; for inhibition of CYP26A1-mediated RA metabolism compared with ketoconazole (in words): see IC50 values in Table 2
Chain of CYP26A1 (O43174 whole entry, species assumed): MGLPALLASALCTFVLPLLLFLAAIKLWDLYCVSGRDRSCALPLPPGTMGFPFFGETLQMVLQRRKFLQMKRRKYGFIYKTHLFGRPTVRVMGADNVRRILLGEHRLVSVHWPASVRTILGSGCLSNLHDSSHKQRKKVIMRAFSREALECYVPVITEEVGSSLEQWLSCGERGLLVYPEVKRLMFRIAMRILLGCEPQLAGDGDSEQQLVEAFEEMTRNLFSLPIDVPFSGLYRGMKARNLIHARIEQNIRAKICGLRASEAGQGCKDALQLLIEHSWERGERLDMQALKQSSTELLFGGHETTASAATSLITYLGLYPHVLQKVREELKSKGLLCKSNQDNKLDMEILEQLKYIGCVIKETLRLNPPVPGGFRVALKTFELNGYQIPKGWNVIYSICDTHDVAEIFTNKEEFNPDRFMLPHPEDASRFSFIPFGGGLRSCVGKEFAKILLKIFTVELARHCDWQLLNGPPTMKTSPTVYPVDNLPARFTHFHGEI
Procedure: (§1) CYP26A1 or CYP26B1 stably transfected HeLa cells were maintained in Minimum Essential Medium (MEM) containing 10% fetal bovine serum (FBS) and 100 μg/mL hygromycin. Exponentially growing cells were harvested by incubation in trypsin. Cells were then collected and re-plated in 48-well culture plates at 5×10^5 cells in 0.2 mL of culture medium containing 0.05 μCi [H]-RA in the presence or absence of increasing concentrations of a test compound. The test compounds were diluted in dimethyl sulfoxide (DMSO) and then added in duplicate to wells at 0.01, 0.1, 1, 10 and 100 μM final concentration. […] Cells were incubated for 3 hours at 37° C. Retinoids were then extracted using the procedure of Bligh, et al., (1959), Canadian Journal of Biochemistry 37, 911-917, which was modified by using dichloromethane instead of chloroform. Each sample's water soluble radioactivity level was quantified using a β-scintillation counter (using Ecolume scintillation fluid, available from MP Biomedicals of Solon, Ohio, USA).

CYP26B1 = CYP26B1 (Homo sapiens (Human), UniProt Q9NR63); test: Cell-based inhibitor assay, [H]-RA metabolism in CYP26B1 stably transfected HeLa cells; settings: for pIC50: read-out: IC50 26B1
Chain of CYP26B1 (Q9NR63 whole entry, species assumed): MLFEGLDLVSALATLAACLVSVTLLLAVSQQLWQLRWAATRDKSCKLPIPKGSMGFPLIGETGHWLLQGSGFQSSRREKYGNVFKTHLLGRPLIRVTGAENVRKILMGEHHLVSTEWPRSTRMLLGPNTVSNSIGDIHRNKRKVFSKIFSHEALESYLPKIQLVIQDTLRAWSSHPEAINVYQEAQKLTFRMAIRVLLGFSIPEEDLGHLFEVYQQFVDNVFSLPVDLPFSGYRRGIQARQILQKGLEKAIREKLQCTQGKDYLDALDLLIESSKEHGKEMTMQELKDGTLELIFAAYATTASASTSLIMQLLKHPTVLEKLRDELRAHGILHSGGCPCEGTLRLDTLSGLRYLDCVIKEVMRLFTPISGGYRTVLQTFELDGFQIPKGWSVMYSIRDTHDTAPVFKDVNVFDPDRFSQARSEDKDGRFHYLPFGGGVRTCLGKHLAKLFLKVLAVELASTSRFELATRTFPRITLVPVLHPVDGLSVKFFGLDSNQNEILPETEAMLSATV
Procedure: as §1

[1] = tested on: RA sensitive reporter construct pCYP26A1-luc in MCF-7 cells; test: Retinoid activity assay, RA sensitive pCYP26A1-luc reporter in MCF-7 cells; format: cell-based; settings: 24 hours, firefly relative to Renilla luciferase
Description: This retinoid activity assay measures the ability of test compounds to induce expression of a transiently transfected RA sensitive reporter construct. In this assay, MCF-7 cells are transfected with a construct comprising an upstream promoter of the CYP26A1 gene containing 2 RA response elements driving expression of firefly luciferase (pCYP26A1-luc). Since CYP26A1 is highly inducible by RA in these cells, this construct serves as a sensitive reporter of retinoid-like transcriptional activity.
MCF-7 cells were maintained in RPMI-1640 medium containing 10% FBS. Exponentially growing cells were harvested by incubation in trypsin. Cells were then collected and plated in 24-well plates at 50,000 cells/well. Once cells reached 80-90% confluence (e.g., the next day), cells were transfected with two plasmids. The first plasmid was CYP26A1-luc construct (375 ng). The second plasmid was a control plasmid comprising the Renilla luciferase gene driven by constitutive thymidine kinase promoter (pRL-tk) (25 ng). Transfection was performed using FuGene 6 transfection reagent (Promega) with a 1:3 ratio of DNA:FuGene. 24 hours after transfection, cells were treated with test compounds diluted in DMSO in triplicate at 0.1, 1 and 10 μM final concentrations. As a positive control for reporter activation, cells were also treated with RA diluted in DMSO at the same concentrations listed above. DMSO treatment alone served as a negative control. After 24 hours of treatment, cells were harvested in passive lysis buffer (Promega) and luciferase activity in cell lysates were read using a luminometer. Data are expressed as the activity of firefly luciferase relative to Renilla luciferase (see Table 3). For CYP26A1 inhibitor compounds, no activation of the reporter was detected, while the related retinoid-like compound induces luciferase expression.

[2] = CYP26B1 transfected HeLa cells, 3 hours at 37° C., inhibition of all trans-RA metabolism

pIC50 (CYP26A1)	pIC50 (CYP26B1; [2])	pIC50 (CYP26B1)	Compound	Luciferase Activity RLU Avg ([1]; 0.1 μM) [RLU]	Luciferase Activity RLU Avg ([1]; 1 μM) [RLU]	Luciferase Activity RLU Avg ([1]; 10 μM) [RLU]	inhibitory activity towards CYP26A1 (in words) (CYP26A1)	inhibition of CYP26A1-mediated RA metabolism compared with ketoconazole (in words) (CYP26A1)	inhibition of CYP26B1 enzyme (in words) (CYP26B1)
< 3.00	5.04		CCC(CC)(C(=O)O)c1ccc(NS(=O)(=O)c2cc3c(cc2C)C(C)(C)CCC3(C)C)cc1 [Cmpd 18]	0.0683	0.0597	0.05			
6.08	5.69		Cc1cc2c(cc1C(=O)Nc1ccc(CC(=O)O)cc1)C(C)(C)CCC2(C)C [Cmpd 02]	0.004	0.0042	0.0066	selective inhibitory activity towards CYP26A1	comparable to or better than ketoconazole	None of the above compounds inhibited the CYP26B1 enzyme
4.70	< 3.00		CC(C)c1cc2c(cc1S(=O)(=O)Nc1ccc(CC(=O)O)cc1)C(C)(C)CCC2(C)C [Cmpd 11]	0.064	0.062	0.044			
4.40	4.94		CC1(C)CCOc2ccc(C(=O)Nc3ccc(CC(=O)O)cc3)cc21 [Cmpd 05]						
4.55	< 4.00		Cc1cc2c(cc1S(=O)(=O)Nc1ccc(C(=O)O)cc1)C(C)(C)CCC2(C)C [Cmpd 14]	0.111	0.125	0.134			
5.08			C=C(Cc1ccc(NS(=O)(=O)c2cc3c(cc2Br)C(C)(C)CCC3(C)C)cc1)OC [Cmpd 04B]						
4.85			C=C(Cc1ccc(NS(=O)(=O)c2ccc3c(c2)C(C)(C)CCC3(C)C)cc1)OC [Cmpd 04A]						
5.21	< 4.00		Cc1cc2c(cc1S(=O)(=O)Nc1ccc(C3(C(=O)O)CC3)cc1)C(C)(C)CCC2(C)C [Cmpd 13]	0.113	0.07	0.04			
< 4.00	4.18		CN(C(=O)c1ccc2c(c1)C(C)(C)CCC2(C)C)c1ccc(CC(=O)O)cc1 [Cmpd 03]	0.0041	0.0039	0.005			
5.25	5.06		CC1(C)CCC(C)(C)c2cc(C(=O)Nc3ccc(CC(=O)O)cc3)ccc21 [Cmpd 01]	0.0041	0.0053	0.0077			

Further lines, the compound ahead of its results:

Compound	pIC50 (CYP26A1)	pIC50 (CYP26B1; [2])	pIC50 (CYP26B1)	Luciferase Activity RLU Avg ([1]; 0.1 μM) [RLU]	Luciferase Activity RLU Avg ([1]; 1 μM) [RLU]	Luciferase Activity RLU Avg ([1]; 10 μM) [RLU]	inhibitory activity towards CYP26A1 (in words) (CYP26A1)	inhibition of CYP26A1-mediated RA metabolism compared with ketoconazole (in words) (CYP26A1)	inhibition of CYP26B1 enzyme (in words) (CYP26B1)
Cc1cc2c(cc1S(=O)(=O)Nc1ccc(CC(=O)O)cc1)C(C)(C)CCC2(C)C [Cmpd 07]				0.0016	0.0019	0.0011			
Cc1cc2c(cc1S(=O)(=O)Nc1ccc(C(C(=O)O)C(C)C)cc1)C(C)(C)CCC2(C)C (stereo not drawn) [Cmpd 19]	6.13	< 4.00		0.0244	0.019	0.0076	selective inhibitory activity towards CYP26A1	comparable to or better than ketoconazole	None of the above compounds inhibited the CYP26B1 enzyme
CC(C)c1cc2c(cc1C(=O)Nc1ccc(CC(=O)O)cc1)C(C)(C)CCC2(C)C [Cmpd 06]	5.89	4.37		0.0021	0.002	0.0018	selective inhibitory activity towards CYP26A1	comparable to or better than ketoconazole	None of the above compounds inhibited the CYP26B1 enzyme
C=C(Cc1ccc(NS(=O)(=O)c2ccc3c(c2)C(C)(C)CCC3(C)C)cc1F)OC [Cmpd 09A]	4.09								
Cc1cc2c(cc1C(=O)Nc1ccc(C(C)(C)C(=O)O)cc1)C(C)(C)CCC2(C)C [Cmpd 16]	5.75	4.92		0.166	0.183	0.155	selective inhibitory activity towards CYP26A1	comparable to or better than ketoconazole	None of the above compounds inhibited the CYP26B1 enzyme
CC1(C)CCC(C)(C)c2cc(S(=O)(=O)Nc3ccc(CC(=O)O)cc3)ccc21 [Cmpd 04]	5.94	4.72		0.0046	0.0035		selective inhibitory activity towards CYP26A1	comparable to or better than ketoconazole	None of the above compounds inhibited the CYP26B1 enzyme
CC1(C)CCC(C)(C)c2cc(NC(=O)c3ccc(CC(=O)O)cc3)ccc21 [Cmpd 08]	5.50	4.72		0.0025	0.0019	0.0028			
Cc1cc2c(c(C)c1C(=O)Nc1ccc(CC(=O)O)cc1)C(C)(C)CCC2(C)C [Cmpd 10]	5.08	6.26		0.073	0.076	0.084			
CCC(CC)(C(=O)O)c1ccc(NS(=O)(=O)c2ccc3c(c2)C(C)(C)CCC3(C)C)cc1 [Cmpd 17]	4.41	6.54		0.023	0.026	0.038			
CC1(C)CCC(C)(C)c2cc(S(=O)(=O)Nc3ccc(CC(=O)O)c(F)c3)ccc21 [Cmpd 09]	5.66	4.85		0.0018	0.0017	0.0012			
Cc1cc(S(=O)(=O)Nc2ccc(CC(=O)O)cc2)cc2c1OC(C)(C)CC2(C)C [Cmpd 21]	5.72		4.66				selective inhibitory activity towards CYP26A1	comparable to or better than ketoconazole	None of the above compounds inhibited the CYP26B1 enzyme
